{"source": "paper PMC9497135", "about": "“Structure-Based Study to Overcome Cross-Reactivity of Novel Androgen Receptor Inhibitors” (Cells, 2022)", "target": "T1, T878A-AR mutant (Homo sapiens, UniProt P10275, T878A)", "T1 construct": "Full-length human wild type AR was cloned into pcDNA3.1 expression plasmid; expressed in transfected cells; host or cells: PC3", "T1 sequence (P10275 1-920 T878A)": "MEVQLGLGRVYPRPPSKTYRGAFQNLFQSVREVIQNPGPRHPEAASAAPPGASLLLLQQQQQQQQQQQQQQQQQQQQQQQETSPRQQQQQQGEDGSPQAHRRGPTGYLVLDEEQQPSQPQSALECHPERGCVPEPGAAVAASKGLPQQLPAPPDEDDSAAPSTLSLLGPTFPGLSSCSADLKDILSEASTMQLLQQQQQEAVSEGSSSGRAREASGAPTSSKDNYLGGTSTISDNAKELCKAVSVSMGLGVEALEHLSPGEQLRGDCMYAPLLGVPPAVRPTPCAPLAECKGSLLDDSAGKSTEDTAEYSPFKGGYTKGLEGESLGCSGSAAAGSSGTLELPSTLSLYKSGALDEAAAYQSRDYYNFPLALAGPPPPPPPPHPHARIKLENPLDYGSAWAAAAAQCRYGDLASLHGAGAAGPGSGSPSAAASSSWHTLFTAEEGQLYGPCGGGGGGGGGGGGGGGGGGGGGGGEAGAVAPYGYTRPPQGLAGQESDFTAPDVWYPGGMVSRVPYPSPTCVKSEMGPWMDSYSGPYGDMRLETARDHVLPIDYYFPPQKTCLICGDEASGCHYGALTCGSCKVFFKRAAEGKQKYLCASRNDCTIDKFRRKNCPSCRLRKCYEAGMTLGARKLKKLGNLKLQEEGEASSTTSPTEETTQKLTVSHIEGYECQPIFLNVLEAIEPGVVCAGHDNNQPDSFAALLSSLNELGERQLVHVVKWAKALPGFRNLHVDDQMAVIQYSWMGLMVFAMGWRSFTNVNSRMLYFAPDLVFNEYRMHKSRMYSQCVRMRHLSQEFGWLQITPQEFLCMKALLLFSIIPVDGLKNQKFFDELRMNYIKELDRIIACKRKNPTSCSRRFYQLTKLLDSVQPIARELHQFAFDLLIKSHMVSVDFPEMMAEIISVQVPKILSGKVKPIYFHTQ", "assay": "Luciferase reporter assay, PC3 cells transfected with T878A-AR", "assay_type": "cell-based", "settings": "in the presence and absence of R1881", "procedure": "Full-length human wild type AR was cloned into pcDNA3.1 expression plasmid (Invitrogen, Waltham, MA, USA) with a CMV promoter. The T878A mutant (T878A-AR) was generated with the Quikchange Mutagenesis Kit (Stratagene, San Diego, CA, USA) using hARWT plasmid as a template. Androgen-starved PC3 cells were seeded in 96-well plates (3000 cells/well) in RPMI 1640 + 5% CSS for 24 h followed by transfection with 50 ng of hARWT or hART878A along with 50 ng of ARR3tk-luciferase reporter construct (100 ng total plasmid DNA) and 0.3 µL/well TransIT20/20 transfection reagent (TT2020, Mirus, Madison, Wisconsin, WI, USA) for 48 h. […] Cell lysis was carried out with 60 µL 1X passive lysis buffer/well (Promega, Madison, Wisconsin, WI, USA). The luminescence from 20 µL of cell lysate and 50 µL of Luciferase assay reagent (Promega, Madison, Wisconsin, WI, USA) was recorded on a TECAN M200pro plate reader.", "data": [{"smiles": "COc1c(F)cccc1-c1csc(N2CCOCC2)n1", "note": "[VPC14368, 4-(4-(3-fluoro-2-methoxyphenyl)thiazol-2-yl)morpholine]", "values": [{"measurement": "Concentration above which transcriptional activation of the T878A AR mutant is induced", "result": "higher than 0.4 µM"}]}]}
